From ChEMBL document CHEMBL4196048, “Discovery and characterization of a potent Wnt and hedgehog signaling pathways dual inhibitor” (Eur J Med Chem, 2018)
Blank lines part the entries; values can stand above or below the compound they belong to. Calls of active or inactive are those of the source. No cut-off for these calls is given here.

Key:
[1] = biological target: T1, Protein-serine O-palmitoleoyltransferase porcupine (Mus musculus, UniProt Q9JJJ7); experiment: (§1) Inhibition of porcupine in mouse L Wnt3A cells co-cultured with HEK293 cells assessed as suppression of Wnt signaling after 48 hrs by Super-top flash reporter gene assay; type: cell-based
T1 sequence (Q9JJJ7 whole entry): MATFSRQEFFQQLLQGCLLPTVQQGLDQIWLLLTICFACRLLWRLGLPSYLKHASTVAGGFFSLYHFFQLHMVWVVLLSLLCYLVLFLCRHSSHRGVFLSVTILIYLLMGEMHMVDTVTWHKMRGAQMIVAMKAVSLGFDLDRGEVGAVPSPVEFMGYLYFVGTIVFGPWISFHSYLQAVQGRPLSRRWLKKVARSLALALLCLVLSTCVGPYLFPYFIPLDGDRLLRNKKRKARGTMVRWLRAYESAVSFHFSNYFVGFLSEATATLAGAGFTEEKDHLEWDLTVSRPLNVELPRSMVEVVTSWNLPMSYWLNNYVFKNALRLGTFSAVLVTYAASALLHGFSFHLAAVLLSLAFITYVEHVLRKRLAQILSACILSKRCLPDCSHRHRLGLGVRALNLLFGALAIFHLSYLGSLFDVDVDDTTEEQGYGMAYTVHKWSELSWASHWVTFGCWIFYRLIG

Protein smoothened [2] = biological target: Protein smoothened (Mus musculus, UniProt P56726); experiment: (§2) Inhibition of smo-mediated hedgehog signaling pathway in mouse NIH3T3 cells expressing GRE-Luc reporter gene assessed as inhibition of SAG-induced GRE-Luc reporter activity after 48 hrs by luminescence assay; type: functional, cell-based
Sequence of Protein smoothened (Mus musculus, UniProt P56726) (P56726 whole entry): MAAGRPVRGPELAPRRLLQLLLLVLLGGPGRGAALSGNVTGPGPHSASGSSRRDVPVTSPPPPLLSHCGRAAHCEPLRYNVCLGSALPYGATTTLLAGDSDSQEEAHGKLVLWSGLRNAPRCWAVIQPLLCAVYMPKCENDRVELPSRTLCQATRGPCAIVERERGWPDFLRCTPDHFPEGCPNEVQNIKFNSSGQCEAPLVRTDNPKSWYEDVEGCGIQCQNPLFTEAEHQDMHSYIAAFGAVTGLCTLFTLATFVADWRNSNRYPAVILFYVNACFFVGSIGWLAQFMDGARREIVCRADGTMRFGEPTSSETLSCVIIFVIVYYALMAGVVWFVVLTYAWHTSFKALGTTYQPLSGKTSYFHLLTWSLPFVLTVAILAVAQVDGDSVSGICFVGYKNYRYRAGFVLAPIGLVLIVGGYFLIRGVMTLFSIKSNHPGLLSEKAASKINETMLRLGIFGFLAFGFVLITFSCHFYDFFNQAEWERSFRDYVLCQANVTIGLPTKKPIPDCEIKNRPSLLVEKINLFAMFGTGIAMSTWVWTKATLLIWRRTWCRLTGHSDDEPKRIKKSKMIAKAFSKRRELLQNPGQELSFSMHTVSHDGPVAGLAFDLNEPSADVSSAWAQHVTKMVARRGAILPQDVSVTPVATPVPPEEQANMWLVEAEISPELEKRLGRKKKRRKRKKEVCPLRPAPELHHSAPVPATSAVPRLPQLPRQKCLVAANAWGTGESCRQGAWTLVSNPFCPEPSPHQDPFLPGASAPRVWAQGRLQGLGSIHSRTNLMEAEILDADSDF

[3] = biological target: T2, Protein-serine O-palmitoleoyltransferase porcupine (Homo sapiens) (UniProt Q9H237); experiment: Inhibition of porcupine in HEK293 cells transfected with pLibin-WNT3A plasmid assessed as downregulation of disheveled 2 phosphorylation at 100 nM after 48 hrs by Western blot analysis; type: cell-based
T2 sequence (whole entry): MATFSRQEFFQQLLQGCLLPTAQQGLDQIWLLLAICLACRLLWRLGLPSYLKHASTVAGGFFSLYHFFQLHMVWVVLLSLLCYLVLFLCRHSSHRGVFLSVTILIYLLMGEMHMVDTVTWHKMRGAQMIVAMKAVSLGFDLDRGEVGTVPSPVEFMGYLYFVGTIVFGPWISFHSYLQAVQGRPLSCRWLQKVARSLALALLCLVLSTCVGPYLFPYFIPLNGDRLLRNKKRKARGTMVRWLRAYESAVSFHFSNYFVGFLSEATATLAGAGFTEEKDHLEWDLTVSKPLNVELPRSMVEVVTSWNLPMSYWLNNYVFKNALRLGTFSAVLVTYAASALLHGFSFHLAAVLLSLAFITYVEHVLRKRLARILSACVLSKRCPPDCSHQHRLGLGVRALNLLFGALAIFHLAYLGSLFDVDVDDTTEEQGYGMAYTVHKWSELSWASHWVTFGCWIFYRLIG

[4] = biological target: Protein smoothened (Mus musculus) (UniProt P56726); experiment: Inhibition of smo-mediated hedgehog signaling pathway in mouse NIH3T3-Luc cells assessed as downregulation of Gli mRNA expression at 1 uM after 48 hrs by real-time PCR analysis; type: functional, cell-based
Sequence of Protein smoothened (Mus musculus) (P56726 whole entry): as the sequence (P56726 whole entry) above

[5] = biological target: T2, Protein-serine O-palmitoleoyltransferase porcupine (Homo sapiens); experiment: Inhibition of porcupine-mediated Wnt/beta-catenin signaling in human PA1 cells assessed as downregulation of Axin2 mRNA expression after 24 hrs by real-time PCR analysis; type: cell-based
HEK-293T = experiment: Effect on Wnt3A levels in HEK293T cells transfected with pLibin-WNT3A plasmid at 100 nM after 48 hrs by Western blot method; type: functional, cell-based; conditions: Homo sapiens
[6] = biological target: T2, Protein-serine O-palmitoleoyltransferase porcupine (Homo sapiens); experiment: Inhibition of porcupine-mediated Wnt/beta-catenin signaling in human PA1 cells assessed as downregulation of disheveled 2 phosphorylation after 48 hrs by Western blot analysis; type: cell-based
[7] = biological target: T2, Protein-serine O-palmitoleoyltransferase porcupine (Homo sapiens); experiment: Inhibition of porcupine in HEK293 cells transfected with pLibin-WNT3A plasmid assessed as downregulation of LRP6 phosphorylation at 100 nM after 48 hrs by Western blot analysis; type: cell-based
[8] = biological target: T2, Protein-serine O-palmitoleoyltransferase porcupine (Homo sapiens); experiment: Inhibition of porcupine-mediated Wnt/beta-catenin signaling in human PA1 cells assessed as downregulation of LRP6 phosphorylation after 48 hrs by Western blot analysis; type: cell-based
[9] = biological target: Protein smoothened (Mus musculus) (UniProt P56726); experiment: as §2; type: functional, cell-based
[10] = biological target: T2, Protein-serine O-palmitoleoyltransferase porcupine (Homo sapiens); experiment: Inhibition of porcupine in HEK293T cells transfected with pLibin-WNT3A plasmid assessed as reduction in Wnt3A secretion into cell culture medium at 100 nM after 48 hrs by Western blot method; type: cell-based
[11] = biological target: T3, Protein-serine O-palmitoleoyltransferase porcupine (Mus musculus) (UniProt Q9JJJ7); experiment: as §1; type: cell-based
T3 sequence (whole entry): T1 sequence (Q9JJJ7 whole entry)

[12] = Oral bioavailability in ICR mouse at 10 mg/kg administered via gavage by LC-MS/MS analysis; type: ADME, organism-based; conditions: in vivo
[13] = Volume of distribution at steady state in ICR mouse at 2 mg/kg, iv by LC-MS/MS analysis; type: ADME, organism-based; conditions: in vivo, read-out: Vdss
Mus musculus [14] = experiment: Toxicity in C57BL/6J mouse assessed as effect on colon architecture at 10 mg/kg administered via oral gavage for 7 days by hematoxylin and eosin staining-based method; type: organism-based; conditions: in vivo, 168 h
Mus musculus [15] = experiment: Toxicity in C57BL/6J mouse assessed as effect on kidney weight at 10 mg/kg administered for 7 days via oral gavage; type: organism-based; conditions: in vivo, 168 h
[16] = Tmax in ICR mouse at 10 mg/kg, po administered via gavage by LC-MS/MS analysis; type: ADME, organism-based; conditions: in vivo
Mus musculus [17] = experiment: Toxicity in C57BL/6J mouse assessed as effect on stomach architecture at 10 mg/kg administered via oral gavage for 7 days by hematoxylin and eosin staining-based method; type: organism-based; conditions: in vivo, 168 h
Astrocyte = experiment: Cytotoxicity against primary astrocytes (unknown origin) up to 20 uM after 24 hrs by MTT assay; type: cell-based
Mus musculus [18] = experiment: Toxicity in C57BL/6J mouse assessed as effect on WBC count in blood at 10 mg/kg administered for 7 days via oral gavage; type: organism-based; conditions: in vivo, 168 h
Mus musculus [19] = experiment: Toxicity in C57BL/6J mouse assessed as effect on hemoglobin content in blood at 10 mg/kg administered for 7 days via oral gavage; type: organism-based; conditions: in vivo, 168 h
[20] = biological target: Protein smoothened (Mus musculus) (UniProt P56726); experiment: Inhibition of smo-mediated hedgehog signaling pathway in mouse NIH3T3-Luc cells assessed as downregulation of 1 to 100 nM SAG-induced Gli luciferase activity after 48 hrs luminescence assay; type: functional, cell-based
Mus musculus [21] = experiment: Toxicity in C57BL/6J mouse assessed as effect on behavior at 10 mg/kg administered for 7 days via oral gavage; type: organism-based; conditions: in vivo, 168 h
Mus musculus [22] = experiment: Toxicity in C57BL/6J mouse assessed as effect on food consumption at 10 mg/kg administered for 7 days via oral gavage; type: organism-based; conditions: in vivo, 168 h
Mus musculus [23] = experiment: Toxicity in C57BL/6J mouse assessed as effect on heart weight at 10 mg/kg administered for 7 days via oral gavage; type: organism-based; conditions: in vivo, 168 h
Mus musculus [24] = experiment: Toxicity in C57BL/6J mouse assessed as effect on liver weight at 10 mg/kg administered for 7 days via oral gavage; type: organism-based; conditions: in vivo, 168 h
[25] = Half life in ICR mouse at 2 mg/kg, iv by LC-MS/MS analysis; type: ADME, organism-based; conditions: in vivo
GES1 = experiment: Cytotoxicity against human GES-1 cells up to 20 uM by Cell Titer-Glo assay; type: cell-based
[26] = Clearance in ICR mouse at 2 mg/kg, iv by LC-MS/MS analysis; type: ADME, organism-based; conditions: in vivo
[27] = Half life in ICR mouse at 10 mg/kg, po administered via gavage by LC-MS/MS analysis; type: ADME, organism-based; conditions: in vivo
[28] = AUC (0 to 24 hrs) in ICR mouse at 2 mg/kg, iv by LC-MS/MS analysis; type: ADME, organism-based; parameters: dose 2 mg/kg, time < 24 hr, route intravenous; conditions: in vivo
[29] = Protein binding in mouse plasma; type: ADME, cell-free; conditions: read-out: PPB (converted)
Mus musculus [30] = experiment: Toxicity in C57BL/6J mouse assessed as effect on lung weight at 10 mg/kg administered for 7 days via oral gavage; type: organism-based; conditions: in vivo, 168 h
Protein smoothened [31] = biological target: Protein smoothened (Homo sapiens, UniProt Q99835); experiment: Inhibition of Bodipy-cyclopamine binding to human Smo expressed in human U2OS cells after 2 hrs by high content fluorescence imaging analysis; type: cell-based
Sequence of Protein smoothened (Homo sapiens, UniProt Q99835) (Q99835 whole entry): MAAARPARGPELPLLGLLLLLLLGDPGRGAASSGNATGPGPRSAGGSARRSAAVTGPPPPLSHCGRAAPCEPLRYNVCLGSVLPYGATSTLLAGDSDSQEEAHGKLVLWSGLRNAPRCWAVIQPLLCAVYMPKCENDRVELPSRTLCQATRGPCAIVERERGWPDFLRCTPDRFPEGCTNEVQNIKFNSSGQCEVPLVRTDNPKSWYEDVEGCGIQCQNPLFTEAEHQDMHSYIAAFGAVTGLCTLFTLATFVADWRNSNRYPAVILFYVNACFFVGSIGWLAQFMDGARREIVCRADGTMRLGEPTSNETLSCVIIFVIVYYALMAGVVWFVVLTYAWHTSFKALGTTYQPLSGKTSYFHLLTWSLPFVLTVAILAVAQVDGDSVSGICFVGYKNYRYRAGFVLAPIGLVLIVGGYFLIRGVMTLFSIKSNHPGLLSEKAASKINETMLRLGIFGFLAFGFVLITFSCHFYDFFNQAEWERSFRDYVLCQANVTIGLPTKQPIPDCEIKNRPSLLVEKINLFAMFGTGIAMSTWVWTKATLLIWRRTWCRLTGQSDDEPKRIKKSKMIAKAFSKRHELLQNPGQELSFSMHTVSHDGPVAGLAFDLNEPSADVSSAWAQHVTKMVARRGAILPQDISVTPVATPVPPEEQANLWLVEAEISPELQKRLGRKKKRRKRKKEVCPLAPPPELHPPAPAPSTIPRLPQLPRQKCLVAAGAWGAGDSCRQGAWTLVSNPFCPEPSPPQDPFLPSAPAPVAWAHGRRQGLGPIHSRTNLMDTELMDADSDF

Mus musculus [32] = experiment: Toxicity in C57BL/6J mouse assessed as effect on lymphocyte count in blood at 10 mg/kg administered for 7 days via oral gavage; type: organism-based; conditions: in vivo, 168 h
Mus musculus [33] = experiment: Toxicity in C57BL/6J mouse assessed as effect on RBC count in blood at 10 mg/kg administered for 7 days via oral gavage; type: organism-based; conditions: in vivo, 168 h
Mus musculus [34] = experiment: Toxicity in C57BL/6J mouse assessed as effect on liver architecture at 10 mg/kg administered via oral gavage for 7 days by hematoxylin and eosin staining-based method; type: organism-based; conditions: in vivo, 168 h
Mus musculus [35] = experiment: Time at which blood concentration stays above in vitro IC50 for porcupine-mediated Wnt signaling and smo-mediated hedgehog signaling pathway in ICR mouse at 10 mg/kg, po administered via gavage by LC-MS/MS analysis; type: ADME, organism-based; conditions: in vivo
[36] = Cmax in ICR mouse at 10 mg/kg, po administered via gavage by LC-MS/MS analysis; type: ADME, organism-based; parameters: dose 10 mg/kg, route oral; conditions: in vivo
Mus musculus [37] = experiment: Toxicity in C57BL/6J mouse assessed as body weight loss at 10 mg/kg administered for 7 days via oral gavage; type: organism-based; conditions: in vivo, 168 h
Mus musculus [38] = experiment: Toxicity in C57BL/6J mouse assessed as effect on spleen weight at 10 mg/kg administered for 7 days via oral gavage; type: organism-based; conditions: in vivo, 168 h
[39] = AUC (0 to 24 hrs) in ICR mouse at 10 mg/kg, po administered via gavage by LC-MS/MS analysis; type: ADME, organism-based; parameters: time < 24 hr, dose 10 mg/kg, route oral; conditions: in vivo
Mus musculus [40] = experiment: Toxicity in C57BL/6J mouse assessed as effect on spleen architecture at 10 mg/kg administered via oral gavage for 7 days by hematoxylin and eosin staining-based method; type: organism-based; conditions: in vivo, 168 h
[41] = biological target: Protein smoothened (Mus musculus) (UniProt P56726); experiment: Inhibition of smo-mediated hedgehog signaling pathway in mouse NIH3T3-Luc cells assessed as downregulation of Gli mRNA expression after 48 hrs by real-time PCR analysis; type: functional, cell-based
Mus musculus [42] = experiment: Toxicity in C57BL/6J mouse assessed as effect on platelet count in blood at 10 mg/kg administered for 7 days via oral gavage; type: organism-based; conditions: in vivo, 168 h

SMILES: Cc1cc(-c2ncc(CNC(=O)c3ccc4c(c3)[nH]c3ccccc34)cc2C#N)ccn1
IC50 [1]: 0.72 nM
IC50 (Protein smoothened [2]): 1220 nM

SMILES: Cc1cc(-c2ncc(CC(=O)Nc3ccc(-c4cnccn4)cn3)cc2C)ccn1
inhibition [3]: Active
inhibition [4]: inactive
inhibition [5]: Active
Activity (HEK-293T): inactive
inhibition [6]: Active
inhibition [7]: Active
inhibition [8]: Active
inhibition [9]: inactive
inhibition [10]: Active

SMILES: CS(=O)(=O)c1ccc(C(=O)Nc2ccc(Cl)c(-c3ccccn3)c2)c(Cl)c1
inhibition [5]: inactive
inhibition [6]: inactive
inhibition [11]: inactive
inhibition [8]: inactive
inhibition [10]: inactive

Now from value to compound, other results behind:

IC50 [1]: 2.1 nM
SMILES: Cc1cc(-c2ncc(CNC(=O)c3ccc4c(c3)oc3ccccc34)cc2F)ccn1

IC50 [1]: 1.9 nM
IC50 (Protein smoothened [2]): 3660 nM
SMILES: COc1cc(CNC(=O)c2ccc3c(c2)[nH]c2ccccc23)cnc1-c1ccnc(C)c1

IC50 [1]: 6.5 nM
SMILES: Cc1cc(-c2ncc(CNC(=O)c3ccc4c(c3)Cc3ccccc3-4)cc2F)ccn1

bioavailability [12]: 49%
inhibition [3]: Active
Vd [13]: 0.4 L/kg
Tmax [16]: 30 min
inhibition [5]: Active
inhibition [6]: Active
inhibition [20]: Active
inhibition [7]: Active
half-life [25]: 66 min
clearance [26]: 6.1 mL/min/kg
inhibition [8]: Active
half-life [27]: 126 min
AUC(0-t) at 24 h [28]: 5460 ng·h/mL
fraction unbound [29]: 0.007
IC50 (Protein smoothened [31]): > 10 µM
inhibition [9]: Dose-dependent effect
IC50 (Protein smoothened [2]): 71 nM
Time (Mus musculus [35]): 10 h
inhibition [10]: Active
Cmax [36]: 5140 ng/mL
AUC(0-t) at 24 h [39]: 13500 ng·h/mL
inhibition [41]: Dose-dependent effect
SMILES: Cc1cc(-c2ncc(CNC(=O)c3ccc4c(c3)[nH]c3ccccc34)cc2F)ccn1
Activity (Mus musculus [14]): Non-Toxic
Activity (Mus musculus [15]): Non-Toxic
Activity (Mus musculus [17]): Non-Toxic
Activity (HEK-293T): inactive
Activity (Astrocyte): Non-Toxic
Activity (Mus musculus [18]): Non-Toxic
Activity (Mus musculus [19]): Non-Toxic
Activity (Mus musculus [21]): Non-Toxic
Activity (Mus musculus [22]): Non-Toxic
Activity (Mus musculus [23]): Non-Toxic
Activity (Mus musculus [24]): Non-Toxic
Activity (GES1): Non-Toxic
Activity (Mus musculus [30]): Non-Toxic
Activity (Mus musculus [32]): Non-Toxic
Activity (Mus musculus [33]): Non-Toxic
Activity (Mus musculus [34]): Non-Toxic
Activity (Mus musculus [37]): Non-Toxic
Activity (Mus musculus [38]): Non-Toxic
Activity (Mus musculus [40]): Non-Toxic
Activity (Mus musculus [42]): Non-Toxic
